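How tested: cells in 96-well plates exposed to compound for 48 hours at five concentrations. TGI: total growth inhibition.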
Columns and labels:
Experiment in all cases: NCI tumour cell line growth inhibition, 48 h
786-0 renal = test system: 786-0 renal
A498 renal = test system: A498 renal
A549 NSCLC = test system: A549 NSCLC
ACHN renal = test system: ACHN renal
BT-549 breast = test system: BT-549 breast
CAKI-1 renal = test system: CAKI-1 renal
CCRF-CEM leukemia = test system: CCRF-CEM leukemia
COLO 205 colon = test system: COLO 205 colon
DU-145 prostate = test system: DU-145 prostate
EKVX NSCLC = test system: EKVX NSCLC
HCC-2998 colon = test system: HCC-2998 colon
HCT-116 colon = test system: HCT-116 colon
HCT-15 colon = test system: HCT-15 colon
HL-60(TB) leukemia = test system: HL-60(TB) leukemia
HOP-62 NSCLC = test system: HOP-62 NSCLC
HOP-92 NSCLC = test system: HOP-92 NSCLC
HS 578T breast = test system: HS 578T breast
HT29 colon = test system: HT29 colon
IGROV1 ovarian = test system: IGROV1 ovarian
K-562 leukemia = test system: K-562 leukemia
KM12 colon = test system: KM12 colon
LOX IMVI melanoma = test system: LOX IMVI melanoma
MALME-3M melanoma = test system: MALME-3M melanoma
MCF7 breast = test system: MCF7 breast
MDA-MB-231 breast = test system: MDA-MB-231 breast
MDA-MB-435 = test system: MDA-MB-435
MDA-N = test system: MDA-N
MOLT-4 leukemia = test system: MOLT-4 leukemia
NCI-H226 lung = test system: NCI-H226 lung
NCI-H23 lung = test system: NCI-H23 lung
NCI-H460 lung = test system: NCI-H460 lung
NCI-H522 lung = test system: NCI-H522 lung
NCI/ADR-RES ovarian = test system: NCI/ADR-RES ovarian
OVCAR-3 ovarian = test system: OVCAR-3 ovarian
OVCAR-4 ovarian = test system: OVCAR-4 ovarian
OVCAR-5 ovarian = test system: OVCAR-5 ovarian
OVCAR-8 ovarian = test system: OVCAR-8 ovarian
PC-3 prostate = test system: PC-3 prostate
RPMI-8226 leukemia = test system: RPMI-8226 leukemia
RXF 393 renal = test system: RXF 393 renal
SF-268 CNS = test system: SF-268 CNS
SF-295 CNS = test system: SF-295 CNS
SF-539 CNS = test system: SF-539 CNS
SK-MEL-2 melanoma = test system: SK-MEL-2 melanoma
SK-MEL-28 melanoma = test system: SK-MEL-28 melanoma
SK-MEL-5 melanoma = test system: SK-MEL-5 melanoma
SK-OV-3 ovarian = test system: SK-OV-3 ovarian
SN12C renal = test system: SN12C renal
SNB-75 CNS = test system: SNB-75 CNS
SR leukemia = test system: SR leukemia
SW-620 colon = test system: SW-620 colon
T-47D breast = test system: T-47D breast
TK-10 renal = test system: TK-10 renal
U251 CNS = test system: U251 CNS
UACC-257 melanoma = test system: UACC-257 melanoma
UACC-62 melanoma = test system: UACC-62 melanoma
UO-31 renal = test system: UO-31 renal
M14 melanoma = test system: M14 melanoma
SNB-19 CNS = test system: SNB-19 CNS

Question: `COC(=O)C1=NN2c3ccccc3C(=O)OCCC2C1` (stereo not given) was tested. Which TGI (786-0 renal) did it give?
Answer: > 100 µM

Question: What about the TGI (A498 renal) of the same molecule?
Answer: > 100 µM

Question: And the TGI (A549 NSCLC)?
Answer: > 100 µM

Question: What about the TGI (ACHN renal) of the same molecule?
Answer: > 100 µM

Question: And the TGI (BT-549 breast)?
Answer: > 100 µM

Question: And the TGI (CAKI-1 renal)?
Answer: > 100 µM

Question: What about the TGI (CCRF-CEM leukemia) of the same molecule?
Answer: > 100 µM

Question: What about the TGI (COLO 205 colon) of the same molecule?
Answer: > 100 µM

Question: And the TGI (DU-145 prostate)?
Answer: > 100 µM

Question: What about the TGI (EKVX NSCLC) of the same molecule?
Answer: > 100 µM

Question: And the TGI (HCC-2998 colon)?
Answer: > 100 µM

Question: And the TGI (HCT-116 colon)?
Answer: > 100 µM

Question: What about the TGI (HCT-15 colon) of the same molecule?
Answer: > 100 µM

Question: What about the TGI (HL-60(TB) leukemia) of the same molecule?
Answer: > 100 µM

Question: And the TGI (HOP-62 NSCLC)?
Answer: > 100 µM

Question: What about the TGI (HOP-92 NSCLC) of the same molecule?
Answer: > 100 µM

Question: What about the TGI (HS 578T breast) of the same molecule?
Answer: > 100 µM

Question: And the TGI (HT29 colon)?
Answer: > 100 µM

Question: What about the TGI (IGROV1 ovarian) of the same molecule?
Answer: > 100 µM

Question: And the TGI (K-562 leukemia)?
Answer: > 100 µM

Question: What about the TGI (KM12 colon) of the same molecule?
Answer: > 100 µM

Question: What about the TGI (LOX IMVI melanoma) of the same molecule?
Answer: > 100 µM

Question: What about the TGI (MALME-3M melanoma) of the same molecule?
Answer: > 100 µM

Question: What about the TGI (MCF7 breast) of the same molecule?
Answer: > 100 µM

Question: And the TGI (MDA-MB-231 breast)?
Answer: > 100 µM

Question: And the TGI (MDA-MB-435)?
Answer: > 100 µM

Question: What about the TGI (MDA-N) of the same molecule?
Answer: > 100 µM

Question: And the TGI (MOLT-4 leukemia)?
Answer: > 100 µM

Question: What about the TGI (NCI-H226 lung) of the same molecule?
Answer: > 100 µM

Question: What about the TGI (NCI-H23 lung) of the same molecule?
Answer: > 100 µM

Question: And the TGI (NCI-H460 lung)?
Answer: > 100 µM

Question: And the TGI (NCI-H522 lung)?
Answer: > 100 µM

Question: What about the TGI (NCI/ADR-RES ovarian) of the same molecule?
Answer: > 100 µM

Question: And the TGI (OVCAR-3 ovarian)?
Answer: > 100 µM

Question: What about the TGI (OVCAR-4 ovarian) of the same molecule?
Answer: > 100 µM

Question: What about the TGI (OVCAR-5 ovarian) of the same molecule?
Answer: > 100 µM

Question: And the TGI (OVCAR-8 ovarian)?
Answer: > 100 µM

Question: And the TGI (PC-3 prostate)?
Answer: > 100 µM

Question: What about the TGI (RPMI-8226 leukemia) of the same molecule?
Answer: > 100 µM

Question: And the TGI (RXF 393 renal)?
Answer: > 100 µM

Question: What about the TGI (SF-268 CNS) of the same molecule?
Answer: > 100 µM

Question: What about the TGI (SF-295 CNS) of the same molecule?
Answer: > 100 µM

Question: And the TGI (SF-539 CNS)?
Answer: > 100 µM

Question: What about the TGI (SK-MEL-2 melanoma) of the same molecule?
Answer: > 100 µM

Question: What about the TGI (SK-MEL-28 melanoma) of the same molecule?
Answer: > 100 µM

Question: What about the TGI (SK-MEL-5 melanoma) of the same molecule?
Answer: > 100 µM

Question: What about the TGI (SK-OV-3 ovarian) of the same molecule?
Answer: > 100 µM

Question: And the TGI (SN12C renal)?
Answer: > 100 µM

Question: What about the TGI (SNB-75 CNS) of the same molecule?
Answer: > 100 µM

Question: And the TGI (SR leukemia)?
Answer: > 100 µM

Question: What about the TGI (SW-620 colon) of the same molecule?
Answer: > 100 µM

Question: And the TGI (T-47D breast)?
Answer: > 100 µM

Question: What about the TGI (TK-10 renal) of the same molecule?
Answer: > 100 µM

Question: What about the TGI (U251 CNS) of the same molecule?
Answer: > 100 µM

Question: And the TGI (UACC-257 melanoma)?
Answer: > 100 µM

Question: What about the TGI (UACC-62 melanoma) of the same molecule?
Answer: > 100 µM

Question: What about the TGI (UO-31 renal) of the same molecule?
Answer: > 100 µM

Question: How did the TGI (786-0 renal) turn out when `Cc1nc2c(nc1C)-c1c(c3c(n1Cc1ccccc1)C(=O)CCC3)C(=O)C2=O` was run?
Answer: > 100 µM

Question: What about the TGI (A498 renal) of the same molecule?
Answer: 38 µM

Question: What about the TGI (A549 NSCLC) of the same molecule?
Answer: > 100 µM

Question: What about the TGI (BT-549 breast) of the same molecule?
Answer: 5.84 µM

Question: And the TGI (CAKI-1 renal)?
Answer: 5.32 µM

Question: What about the TGI (CCRF-CEM leukemia) of the same molecule?
Answer: > 100 µM

Question: And the TGI (COLO 205 colon)?
Answer: > 100 µM

Question: And the TGI (DU-145 prostate)?
Answer: 88.8 µM

Question: And the TGI (EKVX NSCLC)?
Answer: > 100 µM

Question: And the TGI (HCC-2998 colon)?
Answer: 5.49 µM

Question: What about the TGI (HCT-116 colon) of the same molecule?
Answer: > 100 µM

Question: What about the TGI (HCT-15 colon) of the same molecule?
Answer: > 100 µM

Question: What about the TGI (HL-60(TB) leukemia) of the same molecule?
Answer: 97.7 µM

Question: And the TGI (HOP-62 NSCLC)?
Answer: > 100 µM

Question: And the TGI (HOP-92 NSCLC)?
Answer: 90.3 µM

Question: What about the TGI (HS 578T breast) of the same molecule?
Answer: 7.99 µM

Question: What about the TGI (HT29 colon) of the same molecule?
Answer: 23.9 µM

Question: What about the TGI (K-562 leukemia) of the same molecule?
Answer: > 100 µM

Question: And the TGI (KM12 colon)?
Answer: 4.64 µM

Question: And the TGI (M14 melanoma)?
Answer: 91.1 µM

Question: And the TGI (MALME-3M melanoma)?
Answer: 14.2 µM

Question: And the TGI (MCF7 breast)?
Answer: 5.39 µM

Question: And the TGI (MDA-MB-231 breast)?
Answer: > 100 µM

Question: What about the TGI (MDA-MB-435) of the same molecule?
Answer: 5.98 µM

Question: And the TGI (MDA-N)?
Answer: 4.82 µM

Question: And the TGI (MOLT-4 leukemia)?
Answer: > 100 µM

Question: And the TGI (NCI-H226 lung)?
Answer: 48.4 µM

Question: What about the TGI (NCI-H23 lung) of the same molecule?
Answer: > 100 µM

Question: And the TGI (NCI-H460 lung)?
Answer: > 100 µM

Question: What about the TGI (NCI-H522 lung) of the same molecule?
Answer: 7.28 µM

Question: And the TGI (NCI/ADR-RES ovarian)?
Answer: > 100 µM

Question: And the TGI (OVCAR-4 ovarian)?
Answer: 3.59 µM

Question: And the TGI (OVCAR-5 ovarian)?
Answer: > 100 µM

Question: And the TGI (OVCAR-8 ovarian)?
Answer: > 100 µM

Question: And the TGI (PC-3 prostate)?
Answer: 29.4 µM

Question: What about the TGI (SF-295 CNS) of the same molecule?
Answer: 71.1 µM

Question: And the TGI (SK-MEL-2 melanoma)?
Answer: 31.7 µM

Question: And the TGI (SK-MEL-28 melanoma)?
Answer: 4.18 µM

Question: What about the TGI (SK-MEL-5 melanoma) of the same molecule?
Answer: 24.6 µM

Question: What about the TGI (SK-OV-3 ovarian) of the same molecule?
Answer: > 100 µM

Question: And the TGI (SNB-19 CNS)?
Answer: 28.8 µM

Question: What about the TGI (SNB-75 CNS) of the same molecule?
Answer: 6.56 µM

Question: And the TGI (SR leukemia)?
Answer: 6.36 µM

Question: And the TGI (T-47D breast)?
Answer: > 100 µM

Question: What about the TGI (TK-10 renal) of the same molecule?
Answer: 38.1 µM

Question: What about the TGI (UACC-257 melanoma) of the same molecule?
Answer: 48.3 µM

Question: And the TGI (UACC-62 melanoma)?
Answer: 50.9 µM

Question: And the TGI (UO-31 renal)?
Answer: 4.07 µM
